Here are results for 11 compounds from ChEMBL document CHEMBL1201862, “PubChem BioAssay data set” (2004).

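Compound exposure: 48 hours, 5 concentrations, 96-well plates. GI50 marks 50% less growth.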 Activity calls are given as the source filed them. No stated cut-off is given here; in the data, active = GI50 up to about 1.1 µM and inactive = higher.

Some test systems named below: U-251; EKVX; MOLT-4; NCI-H460; A549; SF-295; HCC 2998; SNB-75; SK-MEL-28; Malme-3M; COLO 205; UO-31; SW-620; LXFL 529; SNB-19; LOX IMVI; RPMI-8226; T47D; MDA-N; SK-MEL-2.
Holding throughout (assay): DTP human tumour cell line panel, 48 h

For `CCOC(=O)c1[nH]c(CN(C)Cc2[nH]c(C(=O)OCC)c(C)c2C(=O)OCc2ccccc2)c(C(=O)OCc2ccccc2)c1C`, the GI50 in the assay on U-251 is 12.1 µM (inactive); in the assay with EKVX, 12.9 µM (inactive); in the assay with MOLT-4, > 100 µM (inactive); in the assay on NCI-H460, 5.58 µM (inactive); with A549 it was 16.6 µM (inactive); with SF-295, 19.3 µM (inactive). The GI50 in the assay with HCC 2998 is 14.4 µM (inactive); in the assay with SNB-75 it was 3.3 µM (inactive); with SK-MEL-28, 16.9 µM (inactive); in the assay on Malme-3M, 40.3 µM (inactive); in the assay with COLO 205, 9.08 µM (inactive); with UO-31, 4.09 µM (inactive). Further, the GI50 was 12.7 µM (inactive) in the assay on SW-620, 13.1 µM (inactive) with LXFL 529, 12.9 µM (inactive) in the assay with SNB-19 and 4.75 µM (inactive) in the assay on LOX IMVI.
In the case of `Cc1cc(Cc2cc(C)c(NC(=O)C(=O)C3C(=O)NC(=S)NC3=O)c(C(C)C)c2)cc(C(C)C)c1NC(=O)C(=O)C1C(=O)NC(=S)NC1=O`, the GI50 in the assay with U-251, with EKVX, in the assay with MOLT-4, in the assay on NCI-H460, in the assay on A549 and with SF-295 was > 100 µM (inactive) in each case. In addition, the GI50 in the assay with RPMI-8226, in the assay with HCC 2998, in the assay with SNB-75, with SK-MEL-28, in the assay on Malme-3M and with COLO 205 was > 100 µM (inactive) in each case. Also, the GI50 in the assay on UO-31, in the assay on SW-620, with LXFL 529, in the assay on SNB-19 and with LOX IMVI was > 100 µM (inactive) throughout.
For `C[N+]12c3ccccc3O[B-]1(c1ccccc1)Oc1ccccc12` (centres undefined), the GI50 with U-251 is 16.6 µM (inactive); in the assay on EKVX it was 84.5 µM (inactive); in the assay on MOLT-4, 5.74 µM (inactive); in the assay on A549, 39.4 µM (inactive); in the assay on SF-295, 41 µM (inactive); in the assay with RPMI-8226, 37.4 µM (inactive). Moreover, the GI50 was 19.9 µM (inactive) with SNB-75; 35.1 µM (inactive) in the assay on SK-MEL-28; 40 µM (inactive) with Malme-3M; 63.8 µM (inactive) in the assay on COLO 205; 28.1 µM (inactive) in the assay on SW-620; 28.4 µM (inactive) in the assay with LXFL 529. Moreover, the GI50 is 66.1 µM (inactive) in the assay with SNB-19 and 16.1 µM (inactive) with LOX IMVI.
With `CN(NC(=O)CCCl)C1=NCCN1`, the GI50 in the assay on U-251, in the assay with T47D, with EKVX, with MOLT-4, in the assay on NCI-H460 and in the assay on A549 was > 100 µM (inactive) each time. For the same compound, the GI50 in the assay on SF-295, with RPMI-8226, in the assay with HCC 2998, in the assay with MDA-N, in the assay on SNB-75 and in the assay on SK-MEL-28 was > 100 µM (inactive) throughout. The GI50 in the assay on Malme-3M, with COLO 205, in the assay with UO-31, with SW-620, in the assay with SK-MEL-2 and in the assay with SNB-19 was > 100 µM (inactive) throughout. Also, the GI50 in the assay with LOX IMVI is > 100 µM (inactive).
Turning to `N#Cc1nc(-c2ccccc2C(=O)O)oc1N`, the GI50 in the assay on U-251, in the assay on T47D, in the assay on EKVX, with MOLT-4, with NCI-H460 and in the assay on A549 was > 100 µM (inactive) each time. The GI50 with SF-295, with RPMI-8226, with HCC 2998, in the assay on MDA-N, with SNB-75 and in the assay with SK-MEL-28 was > 100 µM (inactive) in each case. Besides, the GI50 with Malme-3M, with COLO 205, in the assay on UO-31, in the assay on SW-620, with SK-MEL-2 and in the assay with SNB-19 was > 100 µM (inactive) each time. Also, the GI50 with LOX IMVI was > 100 µM (inactive).
For the compound `Cc1cc(=O)oc2c(CNC(C)C(=O)O)c(O)ccc12` (centres undefined), the GI50 with U-251, in the assay on T47D, with EKVX, in the assay with MOLT-4, in the assay on NCI-H460 and with A549 was > 100 µM (inactive) in each case. For the same compound, the GI50 in the assay with SF-295, in the assay with RPMI-8226, with HCC 2998, in the assay with MDA-N, with SNB-75 and with SK-MEL-28 was > 100 µM (inactive) each time. Further, the GI50 in the assay on Malme-3M is > 100 µM (inactive); with COLO 205 it was > 100 µM (inactive); with UO-31, 36.9 µM (inactive); in the assay with SW-620, > 100 µM (inactive); with SK-MEL-2 it was > 100 µM (inactive); with SNB-19, > 100 µM (inactive). For the same compound, in the assay with LOX IMVI, the GI50 was > 100 µM (inactive).
For the compound `CN(C)CCNC(=O)Cn1ccc(=O)c2c([N+](=O)[O-])cccc21`, the GI50 with U-251, in the assay on T47D, in the assay with EKVX, in the assay with MOLT-4, in the assay on NCI-H460 and in the assay with A549 was > 100 µM (inactive) throughout. The GI50 in the assay on SF-295, in the assay with RPMI-8226, in the assay on HCC 2998, with MDA-N, with SNB-75 and in the assay on SK-MEL-28 was > 100 µM (inactive) throughout. In addition, the GI50 in the assay with Malme-3M, with COLO 205, in the assay on UO-31, in the assay with SW-620, in the assay with SK-MEL-2 and with SNB-19 was > 100 µM (inactive) each time. In addition, in the assay on LOX IMVI, the GI50 was > 100 µM (inactive).
With `COC(=O)[C@@H]1C[C@]2(CC=C(C)C)c3ccccc3N(S(=O)(=O)c3ccccc3)[C@@H]2N1C(=O)OC`, the GI50 was 13.3 µM (inactive) with U-251; 5.94 µM (inactive) in the assay with T47D; 3.83 µM (inactive) in the assay on EKVX; 8.2 µM (inactive) with MOLT-4; 14.1 µM (inactive) in the assay on NCI-H460; 11.6 µM (inactive) in the assay with A549. Moreover, the GI50 in the assay on SF-295 is 24.3 µM (inactive); in the assay on RPMI-8226 it was 6.67 µM (inactive); with HCC 2998 it was 10.6 µM (inactive); in the assay with MDA-N, 26.9 µM (inactive); in the assay on SNB-75, 13.1 µM (inactive); in the assay on SK-MEL-28 it was 47.1 µM (inactive). In addition, the GI50 with Malme-3M was 32.5 µM (inactive); in the assay with COLO 205 it was 28.2 µM (inactive); in the assay with UO-31, 28.8 µM (inactive); with SW-620, 40.6 µM (inactive); in the assay with SK-MEL-2, 5.96 µM (inactive); in the assay on SNB-19, 34.1 µM (inactive). Also, the GI50 with LOX IMVI was 21.5 µM (inactive).
Consider `COc1ccc2c3c(ccc2c1)NC(C(=O)O)CC3` (centres undefined), for which the GI50 is 38.2 µM (inactive) with U-251; 26.9 µM (inactive) in the assay on T47D; 67.8 µM (inactive) in the assay with EKVX; 19.5 µM (inactive) in the assay on MOLT-4; 49.8 µM (inactive) in the assay with NCI-H460; 62.1 µM (inactive) in the assay with A549. Moreover, the GI50 with SF-295 was 58.5 µM (inactive); in the assay on RPMI-8226 it was 17.1 µM (inactive); with HCC 2998, 44.3 µM (inactive); in the assay on MDA-N it was 57.8 µM (inactive); in the assay on SNB-75, 57.7 µM (inactive); in the assay with SK-MEL-28, 67.8 µM (inactive). Besides, the GI50 in the assay on Malme-3M was > 100 µM (inactive); in the assay on COLO 205, 39.5 µM (inactive); in the assay with UO-31, 47 µM (inactive); in the assay with SW-620, 35.2 µM (inactive); in the assay with SK-MEL-2, > 100 µM (inactive); in the assay with SNB-19, 56.8 µM (inactive). Further, the GI50 with LOX IMVI is 46.5 µM (inactive).
As for `C/C(=N\Nc1nc2cc(C)ccc2s1)c1ccccn1`, the GI50 with U-251 was 0.946 µM (active); in the assay with T47D it was 0.589 µM (active); in the assay on EKVX, 0.143 µM (active); in the assay with MOLT-4, < 0.0246 µM (active); with NCI-H460 it was 0.69 µM (active); in the assay on A549 it was 0.798 µM (active). Also, the GI50 was 1.15 µM (inactive) in the assay with SF-295; 0.273 µM (active) with RPMI-8226; 1.29 µM (inactive) in the assay with HCC 2998; 1.68 µM (inactive) in the assay with MDA-N; 2.23 µM (inactive) with SNB-75; 1.61 µM (inactive) in the assay with SK-MEL-28. The GI50 was 0.332 µM (active) with Malme-3M; 0.0518 µM (active) with COLO 205; 0.117 µM (active) in the assay on UO-31; 0.209 µM (active) in the assay with SW-620; 0.4 µM (active) in the assay with SK-MEL-2; 1.38 µM (inactive) with SNB-19. For the same compound, in the assay with LOX IMVI, the GI50 is 0.481 µM (active).
On to `CC1=NOC2(C1)/C(=N/O)CCC/C2=N\O` (centres undefined), for which the GI50 in the assay with U-251, with T47D, in the assay on EKVX, in the assay with MOLT-4, with NCI-H460 and in the assay with A549 was > 100 µM (inactive) in each case. Further, the GI50 in the assay on SF-295, with RPMI-8226, with HCC 2998, in the assay on MDA-N, in the assay with SNB-75 and in the assay with SK-MEL-28 was > 100 µM (inactive) in each case. Also, the GI50 with Malme-3M, with COLO 205, with UO-31, in the assay on SW-620, with SK-MEL-2 and with SNB-19 was > 100 µM (inactive) in each case. In addition, the GI50 with LOX IMVI was > 100 µM (inactive).

As a reminder, the GI50 is the concentration that inhibits growth by half.
